The text below walks through data of patent US20110195924A1, “Methods of Inhibiting the Interaction Between S100P and the Receptor for Advanced Glycation End-Products” (priority 2008, published 2011).

In one series the test system is MPanc-96 tumors. Briefly: MPanc-96 orthotopic tumor growth and metastasis in scid mice. Particulars: MPanc-96 model; for lung metastasis, mean: control 5.9×10^7; for liver metastasis, mean: control 9.4×10^8; for tumor burden, mean: gemcitabine 125 mg/kg bi-weekly i.p., cromolyn 5 mg/kg daily i.p., end of six weeks, control 1.1×10^10. The series is classed as in vivo. The method, then:
(§1) FIGS. 5A-5F show the effect of cromolyn on MPanc-96 tumor growth and metastasis in vivo. MPanc-96 cells stably expressing the firefly luciferase gene were injected orthotopically into 4-week-old male CB 17 scid mice. […] Mice were divided into four groups of five mice each with an equivalent mean tumor size between groups. […] One group was treated with water (control), one group received gemcitabine bi-weekly (125 mg per kg body weight bi-weekly by intraperitoneal injection), one group was administered cromolyn daily (5 mg per kg body weight daily by intraperitoneal injection), and the final group was given the combination of cromolyn and gemcitabine. All groups were treated for six weeks. Bioluminescent imaging was done weekly to assess tumor growth. […] Means and 95% confidence intervals from two independent experiments are shown (n=20). Two-tailed two-sample (unpaired) Student's t-tests were used to determine P values. The anti-tumorigenic capability of the drug cromolyn was assessed in 4-week-old male CB 17 scid mice (n=20) carrying orthopic tumors of BxPC-3, MPanc96, and Panc-1 cells stably expressing a Lenti-luc reporter. All mouse experiments were reviewed and approved by the Institutional Animal Care and Use Committee of UT MD Anderson Cancer Center. All mice were maintained in a sterile environment. Cages, bedding, food, and water were all autoclaved. All mice were maintained on a daily 12-hour light/12-hour dark cycle, according to the institutional animal welfare guidelines. BxPC-3, MPanc96, and Pane-1 cells carrying the Lenti-luc reporter gene were grown to 80% confluence, harvested by incubation with trypsin-EDTA, washed twice in PBS, and resuspended to a final concentration of 4.0×10^6 cells/mL. Each mouse (n=20 mice per cell line) was injected (into the pancreas) with cell suspensions (50 μL). Bioluminescent imaging to determine tumor volume was performed 1 week after injection because the tumors became established within this amount of time. This initial tumor volume was used to divide the mice into four groups of five mice each, such that the mean tumor size was equal between groups (FIGS. 4A, 5A, and 6A). To allow enough time to observe differences among treatment groups, the mice were followed for the next 5 weeks. One group of mice was then treated biweekly with a sub-maximal concentration of gemcitabine (125 mg per kg body weight by i.p. injection). A second group was treated with a daily injection of cromolyn (5 mg per kg body weight by i.p. injection). A third group was treated with both bi-weekly gemcitabine and daily cromolyn. The control group was treated daily with vehicle. Treatments were continued for 5 weeks, and the effects on the tumor burden and metastasis were analyzed by weekly bioluminescence imaging (FIGS. 4B, 5B, and 6B). At the end of the experiment the mice were anesthetized with 1.5% isofluorane/air mixture and killed by cervical dislocation. Bioluminescence imaging was conducted using a cryogenically cooled IVIS 100 imaging system coupled to a data acquisition computer running Living Image software (Xenogen Corp., Alameda, Calif.). Before imaging, mice were placed in an acrylic chamber, anesthetized with 1.5% isofluorane/air mixture, and injected i.p. with 15 mg/mL of luciferin potassium salt in PBS at a dose of 150 mg per kg body weight. A digital grey scale image of each mouse was acquired, followed by acquisition and overlay of a pseudocolor image representing the spatial distribution of detected photons emerging from active luciferase within the mouse. Tumor volume was quantified as the sum of all detected photons within the region of the tumor per second. At the end of experiment, the mice were killed, and tumors were surgically removed and weighed. After the primary tumors were removed, cancer cell dissemination and metastasis was visualized using IVIS imaging, and metastatic colonies were counted. […]

The next series deals with Panc-1 tumors. Briefly: Panc-1 orthotopic tumor growth and metastasis in scid mice. It is filed as in vivo. As to the method:
as §1, with “6A-6F” for “5A-5F”, “Panc-1” for “MPanc-96”

The structures appear in SMILES notation.

`Nc1ccn([C@@H]2O[C@H](CO)[C@@H](O)C2(F)F)c(=O)n1` [gemcitabine]: in the series on MPanc-96 tumors, the “liver metastasis, difference versus control” value is 8.1×10^8 photons/sec; the “lung metastasis, difference versus control” value is listed as 5.4×10^7 photons/sec; the “tumor burden, difference versus control” value was 6.9×10^9 photons/sec; the “lung metastasis, mean” value is listed as 5.0×10^6 photons/sec. In the series with MPanc-96 tumors, the “liver metastasis, mean” value is 1.2×10^8 photons/sec and the “tumor burden, mean” value is recorded as 4.1×10^9 photons/sec. In the series with Panc-1 tumors (Panc-1 model), the “body weight, difference versus control” value came out at 4.8 g and the “liver or lung metastasis” value was “neither cromolyn nor gemcitabine nor the combination reduced”. Also, the “body weight at the end of the experiment, mean” value with Panc-1 tumors (Panc-1 model, control 32.0 g) worked out at 27.2 g.

For the compound `O=C(O)c1cc(=O)c2c(OCC(O)COc3cccc4oc(C(=O)O)cc(=O)c34)cccc2o1` [cromolyn, disodium 1,3-bis[(2′-carboxylatochromon-5′-yl)oxy]-2-hydroxypropane], in the series with MPanc-96 tumors, the “liver metastasis, difference versus control” value was 7.2×10^8 photons/sec; the “lung metastasis, difference versus control” value is recorded as 5.6×10^7 photons/sec; the “tumor burden, difference versus control” value is reported as 6.2×10^9 photons/sec; the “lung metastasis, mean” value is 3.2×10^6 photons/sec. Moreover, in the series on MPanc-96 tumors, the “liver metastasis, mean” value is recorded as 2.2×10^8 photons/sec and the “tumor burden, mean” value was 4.8×10^9 photons/sec. For the same compound, the “effect on body weight (in words)” value in the series with MPanc-96 tumors (up to 6 weeks) is on record as “no effect”. Besides, in the series on Panc-1 tumors (Panc-1 model), the “liver or lung metastasis” value is on record as “neither cromolyn nor gemcitabine nor the combination reduced”. The tumor development result in the series with Panc-1 tumors (Panc-1 model (no S100P), cromolyn 5 mg/kg daily i.p.) is recorded as “did not reduce”. For the same compound, the “effect on body weight (in words)” value in the series on Panc-1 tumors (Panc-1 model, up to 6 weeks) was “no effect”.
